Data on twelve compounds can be found in PubChem BioAssay (NCI).

Several values for one entry are separate records, joined by “and”; a condition that tells them apart may be missing. Identical values can stand only once.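 Protocol summary: plate cells (96-well), add compound at 5 concentrations, incubate 48 h, interpolate endpoints linearly. Abbreviation: GI50, concentration required for 50% inhibition of growth. TGI is the concentration that stops growth completely.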

Test systems include DMS 114 small cell lung; LXFL 529 NSCLC; MALME-3M melanoma; MCF7 breast; MDA-MB-231 breast; OVCAR-5 ovarian; SK-OV-3 ovarian; SNB-19 CNS; T-47D breast; UO-31 renal.
Assay in all cases: NCI-60 cell line screen, 48 h

As for `Cn1c2ccccc2c(=O)c2c(O)cc3c(c21)CC(C1(C)CO1)O3` (stereo unspecified), the TGI is 5.11 µM with DMS 114 small cell lung; 1.5 µM with LXFL 529 NSCLC; 28.4 µM in the test on MALME-3M melanoma; 1.89 µM in the test with MCF7 breast; 5.85 µM in the test with MDA-MB-231 breast; 23.4 µM with OVCAR-5 ovarian. Further, the TGI worked out at 24.1 µM in the test with SK-OV-3 ovarian, 26.9 µM in the test with SNB-19 CNS, 24.9 µM in the test on T-47D breast and 4.09 µM with UO-31 renal.

As for `O=C(CC1(O)C(=O)Nc2ccccc21)c1ccc(F)cc1` (stereo unspecified), the TGI with DMS 114 small cell lung, with LXFL 529 NSCLC, with MALME-3M melanoma, in the test on OVCAR-5 ovarian, in the test on SK-OV-3 ovarian and in the test on SNB-19 CNS was more than 100 µM each time. The compound also showed a TGI with UO-31 renal of more than 100 µM.

As to `Cn1c(=O)c2ccc(-c3ccc(Br)cc3)nc2n(C)c1=O`, the TGI with DMS 114 small cell lung, in the test with LXFL 529 NSCLC, in the test with MALME-3M melanoma, in the test with OVCAR-5 ovarian, in the test with SK-OV-3 ovarian and with SNB-19 CNS was more than 100 µM each time. Besides, the TGI in the test on UO-31 renal was more than 100 µM.

Turning to `Cc1cc(=O)n2c3c(c4c(cc13)c(CO)cc(=O)n4C)OC2`, the TGI is 47.5 µM in the test with DMS 114 small cell lung; 34 µM in the test with LXFL 529 NSCLC; 28.5 µM in the test on MALME-3M melanoma; 72.3 µM in the test on OVCAR-5 ovarian; more than 100 µM in the test on SK-OV-3 ovarian; more than 100 µM with SNB-19 CNS. This compound showed a TGI in the test on UO-31 renal of 40.2 µM.

On to `O=C(N/C(=C\c1ccc(/C=C(\NC(=O)c2ccccc2)c2nc3cc(Cl)ccc3[nH]2)cc1)c1nc2cc(Cl)ccc2[nH]1)c1ccccc1`, for which the TGI in the test with DMS 114 small cell lung, with LXFL 529 NSCLC, in the test on MALME-3M melanoma, in the test with OVCAR-5 ovarian, with SK-OV-3 ovarian and in the test with SNB-19 CNS was more than 100 µM throughout. For the same compound, the TGI in the test on UO-31 renal was more than 100 µM.

In the case of `CC1(c2cccc(N)c2)C2C(=O)NC(=O)C1C(=O)NC2=O` (stereo unspecified), the TGI was 96.9 µM in the test on DMS 114 small cell lung; more than 100 µM in the test on LXFL 529 NSCLC; 95 µM with MALME-3M melanoma; more than 100 µM in the test on OVCAR-5 ovarian; 91.5 µM in the test with SK-OV-3 ovarian; more than 100 µM with SNB-19 CNS. The TGI in the test with UO-31 renal amounted to 67.8 µM.

In the case of `CSc1nc2c(nc(N)n2C2OC(COC(C)=O)C(OC(C)=O)C(OC(C)=O)C2OC(C)=O)c(=O)n1C` (stereo unspecified), the TGI in the test with DMS 114 small cell lung, in the test with LXFL 529 NSCLC, in the test with MALME-3M melanoma, with OVCAR-5 ovarian, in the test on SK-OV-3 ovarian and in the test with SNB-19 CNS was more than 100 µM each time. Further, the TGI in the test with UO-31 renal is more than 100 µM.

For the compound `N#Cc1cc([N+](=O)[O-])ccc1NC(=O)C(F)(F)F`, the TGI in the test on DMS 114 small cell lung was more than 56.1 µM; with LXFL 529 NSCLC, more than 100 µM; with MALME-3M melanoma, more than 100 µM; with OVCAR-5 ovarian, more than 100 µM; in the test on SK-OV-3 ovarian, more than 100 µM; in the test with SNB-19 CNS it was more than 100 µM. The compound further yielded a TGI in the test with UO-31 renal of more than 100 µM.

In the case of `Cc1ccc(NC(=O)CC/C(CC(=O)C(C)(C)C)=N/NC(=O)C[N+](C)(C)C)cc1C`, the TGI in the test on DMS 114 small cell lung, in the test with LXFL 529 NSCLC, with MALME-3M melanoma, in the test on OVCAR-5 ovarian, with SK-OV-3 ovarian and in the test on SNB-19 CNS was more than 100 µM in each case. Further, the TGI in the test on UO-31 renal is more than 100 µM.

On to `Cc1cc2nc3ccc(=[N+](C)C)cc-3sc2cc1N`, for which the TGI with DMS 114 small cell lung was 2.79 µM; in the test on LXFL 529 NSCLC it was 18.1 µM; with MALME-3M melanoma, 1.8 µM and 6.42 µM and 0.782 µM; with MCF7 breast, 1.87 µM and 6.05 µM and 2.79 µM; in the test with MDA-MB-231 breast, 7.51 µM and 7.94 µM and 1.33 µM; with OVCAR-5 ovarian, 3.95 µM and 22.5 µM and 3.42 µM. For the same compound, the TGI in the test with SK-OV-3 ovarian is 8.08 µM and 34.8 µM and 10.9 µM; in the test with SNB-19 CNS it was 10.5 µM and 8.99 µM and 9.55 µM; in the test on T-47D breast, 4.52 µM and 28.8 µM and 6.75 µM; in the test on UO-31 renal, 9.11 µM and 25.1 µM and 10.8 µM. Moreover, the GI50 is 0.384 µM and 0.223 µM in the test with MALME-3M melanoma; 0.326 µM and 0.405 µM in the test on MCF7 breast; 0.739 µM and 0.284 µM in the test with MDA-MB-231 breast; 1.37 µM and 0.833 µM with OVCAR-5 ovarian; 1.98 µM and 3.01 µM in the test on SK-OV-3 ovarian; 0.782 µM in the test with SNB-19 CNS. Further, the GI50 in the test with T-47D breast was 0.475 µM and 0.722 µM; in the test on UO-31 renal, 1.73 µM and 1.61 µM.

Turning to `C/C(=N\NC(=S)N1CCN(C2CCCCCC2)CC1)c1ccccn1`, the GI50 was less than 0.001 µM in the test on DMS 114 small cell lung, 0.0382 µM in the test with MALME-3M melanoma, 3.17 µM in the test on SNB-19 CNS and 1.35 µM in the test on UO-31 renal. The TGI with DMS 114 small cell lung was 0.0461 µM and < 0.0408 µM; with LXFL 529 NSCLC it was 2.67 µM; in the test with MALME-3M melanoma it was 3.09 µM; in the test with MCF7 breast, 2.05 µM; with MDA-MB-231 breast it was 2.85 µM; with OVCAR-5 ovarian, 3.01 µM. For the same compound, the TGI was 2.96 µM with SK-OV-3 ovarian; 8.3 µM in the test with SNB-19 CNS; 2.22 µM in the test with T-47D breast; 3.75 µM and 1.5 µM in the test with UO-31 renal.

Consider `C=C1COC(O)(C2OCOC(C3CC(=O)NC(=O)C3)C2O)C1C` (stereo unspecified), for which the TGI in the test on DMS 114 small cell lung is 0.0271 µM and 0.0437 µM; with LXFL 529 NSCLC it was 0.0897 µM and 0.101 µM; with MALME-3M melanoma, 0.0154 µM and 0.0364 µM; in the test on MDA-MB-231 breast, 0.0328 µM; in the test on OVCAR-5 ovarian it was 0.0499 µM and 0.0546 µM; in the test with SK-OV-3 ovarian, 0.052 µM. Also, in the test on UO-31 renal, the TGI is 0.0278 µM and 0.0215 µM. The GI50 was 0.00285 µM in the test with MALME-3M melanoma; 0.00331 µM and 0.017 µM in the test with OVCAR-5 ovarian; 0.00429 µM with SK-OV-3 ovarian; 0.0036 µM in the test on SNB-19 CNS; 0.00457 µM with T-47D breast; 0.00204 µM with UO-31 renal.
